Test results taken from ChEMBL document CHEMBL1150939, “Symplostatin 1: A dolastatin 10 analogue from the marine cyanobacterium Symploca hydnoides” (J Nat Prod, 1998).
Converted amounts (≈) assume the structure as drawn.

Legend:
[1] = system: KB; experiment: Cytotoxicity against human KB cells; type: functional, cell-based
[2] = system: A10; experiment: Induction of microtubule loss in rat A10 cells at 1 ng/mL; type: functional

Structure (SMILES) | IC50 [1] [ng/mL] | Activity [2] [%]
CC[C@H](C)[C@@H]([C@@H](CC(=O)N1CCC[C@H]1[C@H](OC)[C@@H](C)C(=O)N[C@@H](Cc1ccccc1)c1nccs1)OC)N(C)C(=O)[C@@H](NC(=O)[C@H](C(C)C)N(C)C)C(C)C [DOLASTATIN-10] | < 0.1 | 
CC[C@H](C)[C@@H]([C@@H](CC(=O)N1CCC[C@H]1[C@H](OC)[C@@H](C)C(=O)N[C@@H](Cc1ccccc1)c1nccs1)OC)N(C)C(=O)[C@@H](NC(=O)[C@H]([C@@H](C)CC)N(C)C)C(C)C [SYMPLOSTATIN 1] | 0.3 (≈ 0.375 nM) | 80
